According to patent publication US20200108031A1, “Treating Tumors Using TTFields Combined with ABT-751” (Novocure GmbH, priority 2018, published 2020):

Key:
[1] = tested on: A172 cells; experiment: Growth of A172 cells, TTFields alone and in combination with ABT-751; format: cell-based; settings: ABT-751 1 μM, 8 hours, TTFields 200 kHz, 3.3 V/cm, 72 hours (continuous or 3×16 hours), FIG. 1
Method: (§1) For the first two bars, both without (−) and with (+) ABT-751, TTFields were not applied. For the next two bars, both without (−) and with (+) ABT-751, TTFields were applied for three 16 hour intervals, and each of those 16 hour intervals was followed by an 8 hour interval during which TTFields were not applied. For the next two bars, both without (−) and with (+) ABT-751, TTFields were applied continuously for 72 hours. […] Data are mean±SEM; n≥5; Statistical significance was determined by one-way ANOVA; Tukey-corrected for multiple comparisons; *p<0.05, **p<0.01, ***p<0.001, ****p<0.0001. In all the experiments described herein, TTFields (200 kHz; 3.3V/cm) were applied using an Inovitro™ system.

[2] = tested on: A172 cells; experiment: Colony formation (clonogenic survival) of A172 cells, TTFields alone and in combination with ABT-751; format: cell-based; settings: ABT-751 1 μM, 8 hours, TTFields 200 kHz, 3.3 V/cm, 72 hours (continuous or 3×16 hours), FIG. 2
Method: as §1

COc1ccc(S(=O)(=O)Nc2cccnc2Nc2ccc(O)cc2)cc1 [ABT-751, N-[2-(4-hydroxyanilino)pyridin-3-yl]-4-methoxybenzenesulfonamide]
synergy with TTFields on cell growth [1]: synergizes | synergy with TTFields on colony formation [2]: synergizes
